These are literature values, as cited in the PKSmart pharmacokinetics tables (Seal et al. 2025).

The nature of this series: Lombardo, Berellini, Obach 2018, Drug Metab Dispos 46:1466, doi 10.1124/dmd.118.082966. The note with it: human; for MRT / Vd / clearance / half-life: in vivo, iv; for fraction unbound: plasma.

SMILES strings stand for the structures. Where a SMILES comes first, the peptide text is derived from it. Bridges are numbered along the chain shown (N, C = ends). [ ]: non-standard residue; d: D form. hArg = N=C(N)NCCCC[CH](N)C(=O)O; Mpa = O=C(O)CCS

As usually defined, the MRT is a mean duration of stay, worked out from the concentration-time curve. Usually Vd stands for the apparent volume that relates the amount in the body to the concentration in plasma or blood. The clearance is the rate of elimination divided by the concentration. What is called half-life is the time needed for the level to fall by half in the phase considered. As for `Cc1cc(O)c2c(=O)c3c(O)cc(O)c4c5c(O)cc(O)c6c(=O)c7c(O)cc(CO)c8c1c2c(c34)c(c65)c78`, the MRT is 15 h, the Vd was 0.56 L/kg, the clearance was 0.62 mL/min/kg and the half-life was 1200 min.
Regarding `N=C(N)NC(CS)C(=O)O` (configuration not stated), the MRT is 1.39 h, the distribution volume (Vd) was 0.25 L/kg, the clearance was 2.88 mL/min/kg and the half-life is 80.4 min.
Broadly, the fraction unbound is free concentration divided by total concentration. Turning to `CCOc1cc(Cc2cnc(N)nc2N)cc(OCC)c1-n1cccc1`, the Vd was 2.5 L/kg, the clearance was 3.5 mL/min/kg, the half-life is 564 min and the fraction unbound was 0.12.
On to `C=CCN1CCCC1CNC(=O)c1cc2[nH]nnc2cc1OC` (configuration not stated), for which the MRT was 4 h, the Vd was 1.6 L/kg, the clearance is 6.6 mL/min/kg and the half-life is 168 min.
Regarding `O=C(/C=C/c1ccc(O)cc1)C1=C(O)[C@](O)([C@@H]2O[C@H](CO)[C@@H](O)[C@H](O)[C@H]2O)C(O)=C([C@@H]2O[C@H](CO)[C@@H](O)[C@H](O)[C@H]2O)C1=O`, the MRT is 3.6 h, the Vd is 0.2 L/kg, the clearance is 1 mL/min/kg and the half-life was 174 min. In addition, the fraction unbound is 0.22.
As to `COc1ccc(CC(NC(=O)CC(C)(C)N)C(=O)NC(Cc2c[nH]cn2)C(=O)N[C@@H](CC2CCCCC2)[C@@H](O)[C@@H](O)CC(C)C)cc1` (some centres not stated), the MRT was 3.1 h, the Vd was 0.11 L/kg, the clearance was 0.45 mL/min/kg and the half-life is 103 min. Further, the fraction unbound was 0.07.
Take `CN(C)C/C=C(\c1ccc(Br)cc1)c1cccnc1`: the MRT was 8.22 h, the Vd was 6.8 L/kg, the clearance is 13.8 mL/min/kg and the half-life is 376 min. Besides, the fraction unbound is 0.086.
Regarding `COC(=O)O[C@@]12CO[C@@H]1C[C@H](O)[C@@]1(C)C(=O)C(OC(C)=O)=C3C(C)[C@@H](OC(=O)C(O)C(NC(=O)c4ccccc4)c4ccccc4)C[C@@](O)([C@@H](OC(=O)c4ccccc4)[C@H]21)C3(C)C` (some centres not stated), the MRT is 13 h, the Vd was 6.9 L/kg, the clearance is 8.6 mL/min/kg and the half-life was 1860 min.
For the compound `CC(C=Cc1c(C)c(O)c2ccccc2c1O)=CCC[C@H](C)CCC[C@H](C)CCCC(C)C`, the MRT was 3.3 h, the Vd was 0.32 L/kg, the clearance is 1.6 mL/min/kg and the half-life is 438 min.
In the case of `CNCCCC12CCC(c3ccccc31)c1ccccc12`, the MRT was 54 h, the Vd was 45 L/kg, the clearance is 14 mL/min/kg and the half-life is 3060 min. In addition, the fraction unbound is 0.11.
In the case of `O=C1CN=C(c2ccccc2Cl)c2cc(Br)ccc2N1`, the MRT was 28.3 h, the Vd is 0.089 L/kg, the clearance is 0.05 mL/min/kg and the half-life is 893 min.
With `CC(=N)N1CC[C@H](Oc2ccc(C(Cc3ccc4ccc(C(=N)N)cc4c3)C(=O)O)cc2)C1` (some centres not stated), the MRT is 14.4 h, the Vd was 1.55 L/kg, the clearance is 1.86 mL/min/kg and the half-life was 1440 min.
Consider `N=C(N)c1ccc(C(=O)NC(Cc2ccc(O)cc2)C(=O)N2CCC(OCC(=O)O)CC2)cc1` (configuration not stated), for which the mean residence time (MRT) is 2.5 h, the Vd is 0.29 L/kg, the half-life was 126 min and the fraction unbound was 0.94.
Regarding `Cc1cccc(C)c1OCC(C)N` (configuration not stated), the MRT is 12 h, the Vd was 5.9 L/kg, the clearance was 8.3 mL/min/kg and the half-life is 594 min. The fraction unbound is 0.36.
In the case of `O=c1[nH]cnc2c([C@@H]3N[C@H](CO)[C@@H](O)[C@H]3O)c[nH]c12`, the clearance is 1.56 mL/min/kg and the half-life was 696 min.
Regarding `CCCCNc1cc(C(=O)O)cc(S(N)(=O)=O)c1Oc1ccccc1`, the MRT is 1.1 h, the Vd was 0.16 L/kg, the clearance was 2.5 mL/min/kg and the half-life is 72 min.
For the compound `N=C(N)NCCCCC1NC(=O)CCSSCC(C(N)=O)NC(=O)C2CCCN2C(=O)C(Cc2c[nH]c3ccccc23)NC(=O)C(CC(=O)O)NC(=O)CNC1=O` (configuration not stated) ([Mpa][hArg]GDWPC-NH2; disulfide 1-7; configuration not given here), the MRT is 2.4 h, the Vd was 0.17 L/kg, the clearance is 1.2 mL/min/kg and the half-life was 252 min. The fraction unbound was 0.75.
With `Cc1c(OCC(F)(F)F)ccnc1C[S+](O)c1nc2ccccc2[n-]1` (configuration not stated), the MRT is 1.1 h, the Vd is 0.28 L/kg, the clearance was 4.4 mL/min/kg and the half-life was 60 min.
As to `CN(C)C(=O)Oc1cccc([N+](C)(C)C)c1`, the MRT is 1.3 h, the Vd was 0.74 L/kg, the clearance was 9.2 mL/min/kg and the half-life was 78 min.
Turning to `CCOc1ccc(Cc2cc(C3O[C@H](CO)[C@@H](O)[C@H](O)[C@H]3O)ccc2Cl)cc1` (some centres not stated), the MRT was 9.5 h, the Vd was 1.7 L/kg, the clearance was 3 mL/min/kg and the half-life was 732 min. Also, the fraction unbound is 0.09.
Take `CN1CCN(CC(=O)N2c3ccccc3C(=O)Nc3cccnc32)CC1`: the MRT is 10.3 h, the Vd was 1.71 L/kg, the clearance was 2.77 mL/min/kg and the half-life is 666 min.
As for `CC[C@@]1(O)C(=O)OCc2c1cc1n(c2=O)Cc2c-1nc1cc3c(cc1c2CN1CCN(C)CC1)OCCO3`, the MRT is 3.5 h, the Vd was 4.77 L/kg, the clearance is 25.1 mL/min/kg and the half-life was 212 min.
For `CN1C[C@H](CNC(=O)OCc2ccccc2)C[C@@H]2c3cccc4c3c(cn4C)C[C@H]21`, the MRT was 1 h, the Vd is 0.57 L/kg, the clearance was 9.6 mL/min/kg and the half-life was 55.8 min.
As for `N#C[C@@H](O[C@@H]1O[C@H](CO[C@@H]2O[C@H](CO)[C@@H](O)[C@H](O)[C@H]2O)[C@@H](O)[C@H](O)[C@H]1O)c1ccccc1`, the MRT was 1.83 h, the Vd is 0.21 L/kg, the clearance is 1.88 mL/min/kg and the half-life was 73.8 min.
For `CCCC[S@](=N)(=O)CCC(N)C(=O)O` (some centres not stated), the mean residence time (MRT) was 1.9 h, the Vd is 0.26 L/kg, the clearance is 2.28 mL/min/kg and the half-life is 101 min.
As to `COc1cccc2c1C(=O)c1c(O)c3c(c(O)c1C2=O)C[C@@](O)(C(=O)CO)C[C@@H]3O[C@H]1C[C@H](N2CCO[C@H](OC)C2)[C@H](O)[C@H](C)O1`, the MRT was 53.3 h, the volume of distribution (Vd) was 49 L/kg, the clearance is 15.3 mL/min/kg and the half-life is 2950 min.
Regarding `O=c1[nH]cnc2c1ncn2[C@H]1CC[C@@H](CO)O1`, the MRT was 1.2 h, the clearance was 11 mL/min/kg and the half-life is 84 min.
For the compound `CC[C@@H](C)N(C)C(=O)c1cc2ccccc2c(-c2ccccc2Cl)n1`, the MRT was 5.4 h, the Vd was 1.7 L/kg, the clearance is 5.9 mL/min/kg and the half-life is 222 min.
Turning to `CN1CCN(C(=O)OC2c3nccnc3C(=O)N2c2ccc(Cl)cn2)CC1` (configuration not stated), the MRT is 6.6 h, the Vd is 1.3 L/kg, the clearance was 3.3 mL/min/kg and the half-life was 312 min.
As to `O=C(c1ccc(OCCN2CCCCC2)cc1)c1c(-c2ccc(O)cc2)sc2cc(O)ccc12`, the MRT is 11.6 h, the Vd was 7.5 L/kg, the half-life was 726 min and the fraction unbound is 0.05.
For `N#Cc1c(N2C[C@@H]3NCCO[C@H]3C2)c(F)cc2c(=O)c(C(=O)O)cn(C3CC3)c12`, the MRT is 4.11 h, the Vd was 1.42 L/kg, the clearance was 5.75 mL/min/kg and the half-life was 805 min. In addition, the fraction unbound was 0.75.
`Nc1nc(N/N=C/C2CCCCC2)nc2c1ncn2[C@@H]1O[C@H](CO)[C@@H](O)[C@H]1O`: the MRT was 0.19 h, the Vd is 0.4 L/kg, the clearance is 35.8 mL/min/kg and the half-life was 12.6 min.
As to `NC(O)=NO`, the MRT was 4.8 h, the Vd is 0.52 L/kg, the clearance is 1.5 mL/min/kg and the half-life is 204 min.
